# Key:
# [1] = tested on: anti-Thy 1 glomerulonephritis; test: Glomerular mRNA expression (Northern hybridization); type: in vivo, Sprague Dawley rats; conditions: enalapril alone
# Description: These experiments were performed on male Sprague Dawley rats (200-250 g) obtained from the Sasco colony of Charles River Laboratories (Wilmington, Mass., USA). Animal housing and care were in accordance with the NIH Guide for the Care and Use of Laboratory Animals, NIH Publication No. 85-23, 1985. Animals were fed a normal protein diet (22% protein, Teklad No. 86 550, Teklad Premier Laboratory Diets, Madison, Wis., USA). Glomerulonephritis was induced by tail vein injection of 2.25 mg/Kg of the monoclonal anti-Thy 1.1 antibody OX-7 (NCCC, Biovest International Inc, Minneapolis, Minn., USA). OX-7 binds to a Thy 1-like epitope on the surface of mesangial cells causing complement-dependent cell lysis followed by fibrotic tissue repair (Bagchus et al., Lab Invest. 55:680-687 (1986)). Control animals were injected with similar volumes of phosphate-buffered saline (PBS). Groups of 8 rats were assigned and treated as outlined in Table 2. […] Changes in mRNA levels were determined by first correcting for the densitometric intensity of 18S for each sample. For comparison, this ratio was set at unity for normal control samples and other lanes on the same gel were expressed as fold increases over this value. […] The percent reduction in disease severity in a treated group was calculated as:
# [2] = tested on: anti-Thy 1 glomerulonephritis; test: Immunofluorescent staining of glomerular fibronectin EDA+ and collagen I; type: in vivo, Sprague Dawley rats; conditions: enalapril alone
# Description: (§1) These experiments were performed on male Sprague Dawley rats (200-250 g) obtained from the Sasco colony of Charles River Laboratories (Wilmington, Mass., USA). Animal housing and care were in accordance with the NIH Guide for the Care and Use of Laboratory Animals, NIH Publication No. 85-23, 1985. Animals were fed a normal protein diet (22% protein, Teklad No. 86 550, Teklad Premier Laboratory Diets, Madison, Wis., USA). Glomerulonephritis was induced by tail vein injection of 2.25 mg/Kg of the monoclonal anti-Thy 1.1 antibody OX-7 (NCCC, Biovest International Inc, Minneapolis, Minn., USA). OX-7 binds to a Thy 1-like epitope on the surface of mesangial cells causing complement-dependent cell lysis followed by fibrotic tissue repair (Bagchus et al., Lab Invest. 55:680-687 (1986)). Control animals were injected with similar volumes of phosphate-buffered saline (PBS). […] The intensity of glomerular staining of collagen I and fibronectin was evaluated according to a 0 to 4 scale, which has been described in detail previously (Yamamoto et al., Kidney Int. 49:461-469 (1996)). The number of cells per glomerulus, staining positive for the monocyte/macrophage marker ED1, were counted. Thirty glomeruli per sample were evaluated. The mean values with standard error values were calculated. […] The percent reduction in disease severity in a treated group was calculated as: […]
# anti-Thy 1 model = conditions: monotherapy, anti-Thy 1 model (Peters et al.); L-arginine 1% in drinking water; cited from earlier work
# [3] = tested on: anti-Thy 1 glomerulonephritis; test: Glomerular ED1+ monocyte/macrophage count; type: in vivo, Sprague Dawley rats; conditions: Enalapril alone, P<0.05
# Description: as §1
smiles,measurement,setting,value
CCOC(=O)[C@H](CCc1ccccc1)N[C@@H](C)C(=O)N1CCC[C@H]1C(=O)O [enalapril],reduction of TGF-β1 mRNA,[1],29%
same,reduction of collagen I immunostaining,[2],33%
same,reduction of fibronectin immunostaining,[2],36%
same,reduction of markers of fibrotic disease,anti-Thy 1 model,about 50%
same,reduction of number of ED1+ cells,[3],62%
